Values of other authors as cited in patent US20140350454A1, “IRRADIATION APPARATUS” (Photocure ASA, priority 2011, published 2014).
Read-outs that look alike come from different tables or passages of the source.

Columns and labels:
VIN [1] = details: VIN patients, topical 5-ALA 20% w/w in Unguentum Merck, 4 hours incubation, 630 nm non-laser light
lesions of VIN 1-3 = details: 25 patients, 111 lesions of VIN 1-3; 10 ml 5-ALA solution 20% w/w in saline, 4-5 hours under occlusion; 635 nm laser, 100 J/cm^2, 150 mW/cm^2; repeated PDT
VIN [2] = details: bioadhesive patch 38 mg/cm^2 5-ALA in dry form, in situ 4-6 hours; 630 nm non-laser lamp, 20-30 min, 100 J/cm^2; repeated PDT

## NCC(=O)CCC(=O)O [5-ALA, 5-aminolevulinic acid]
VIN [1]; light dose 50 J/cm^2
  response rate: unacceptably low
VIN [1]; light dose 100 J/cm^2
  clearance rate: 40-60%
Lesions of VIN 1-3
  complete response (of the patients): 52%
VIN [2]
  clearance rate: 52%
